Drawing on patent US20080004302A1, “Novel Compounds” (ASTRAZENECA AB, priority 2006, published 2008), this text covers IC50 for 19 compounds.

Experiment [1] addresses T1, FGFR1 IIIc (Homo sapiens, UniProt P11362).
T1 construct: host or cells: Cos-1
The experiment can be described thus: Cell based inhibition of transiently expressed FGFR1 IIIc phosphorylation via use of ECHO technology (Cos-1 cells).

In the next experiment the target is T2, FGFR kinase domain (Homo sapiens, UniProt P11362, C488A/C584S).
T2 construct: FGFR kinase domain (amino acids 458-765, C488A, C584S) N-terminally fused to a His6-tag; made in house
Put plainly: Kinase assay (ELISA) for inhibition of FGFR activity. It counts as biochemical. As to the method: To determine inhibition of FGFR activity, kinase assays were conducted using ELISA (Enzyme-Linked Immunosorbent Assay) technology.
Kinase activity assays were performed in 384-well polypropylene plates (Matrix, 4311) with a total volume of 40 μl in each well. Each well was coated with 2 μg of polyEAY substrate (Sigma, P3899) at 4° C. overnight. The plates were then washed once with 100 μl PBS and once with 100 μl 50 mM HEPES (pH 7.4) prior to the addition of the kinase assay reagents. […] Various concentrations of test compounds were each added in 5% (v/v) DMSO to yield a final assay DMSO concentration of 1.25% (v/v). The kinase reactions were incubated at room temperature for 45 minutes and stopped by washing the plate three times with 100 μl PBS plus 0.05% Tween. […] Following this, the plates were then washed repeatedly with 100 μl PBS plus 0.05% Tween to remove all traces of the antibody solution. 40 μl of 50 μg/ml 3,3′,5,5′-Tetramethylbenzidine (Sigma, T2885), 0.05M phosphate-citrate buffer, containing 0.03% sodium perborate was added to each well and the plates incubated at room temperature for twelve minutes. The colour reaction was stopped by the addition of 20 μl 2M H2SO4 and the plates read at 450 nm on a Spectrafluor Plus (Tecan).

The target of the next experiment is FGFR1 kinase (Homo sapiens, UniProt P11362). Put plainly: Kinase assay (using Caliper technology). It counts as biochemical. An outline of the steps:
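Human FGFR1 kinase activity measured with a 13-mer fluorescently tagged FGFR1-specific peptide substrate; compounds serially diluted in 5% (v/v) DMSO. Reactions ran 1.5 h at room temperature, stopped with EDTA-containing HEPES pH 7.5 buffer. Phosphorylated and unphosphorylated peptide separated by microfluidic mobility shift.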

The target of another experiment is T3, human IGF1R (Homo sapiens, UniProt P08069).
T3 construct: expressed in transfected cells; host or cells: R+ cells (R- mouse fibroblasts transfected with human IGF1R)
Put plainly: Inhibition of insulin-like growth factor-1 receptor phosphorylation in R+ cells. It counts as cell-based. As to conditions: 30 nM IGF1, read-out: IGF cell class.

Experiment [2] concerns the target T1, FGFR1 IIIc. The experiment can be described thus: Cell based inhibition of transiently expressed FGFR1 IIIc phosphorylation (Cos-1 cells).
A further experiment concerns Erk phosphorylation. Put plainly: Growth factor (bFGF) stimulated Erk phosphorylation in NIH 3T3 cells. As to conditions: Mus musculus, NIH3T3, NIH 3T3 cells, 3 ng/ml bFGF.
Setting [3] is: Cos-1 cells, phospho-FGFR1, ECHO dosing, upper bound of bin, read-out: IC50.
Where [4] appears, read: FGFR inhibition tests, ELISA kinase assay, read-out: Activity class.
Where [5] appears, read: FGFR1 kinase, Caliper, upper bound of bin, read-out: IC50.
[6] abbreviates: Cos-1 cells, phospho-FGFR1, upper bound of bin, read-out: IC50.

Structures can show the parent of a compound that is named as a salt. Where two headings read alike, the source gives them in different places.

T3 sequence (P08069 31-1367): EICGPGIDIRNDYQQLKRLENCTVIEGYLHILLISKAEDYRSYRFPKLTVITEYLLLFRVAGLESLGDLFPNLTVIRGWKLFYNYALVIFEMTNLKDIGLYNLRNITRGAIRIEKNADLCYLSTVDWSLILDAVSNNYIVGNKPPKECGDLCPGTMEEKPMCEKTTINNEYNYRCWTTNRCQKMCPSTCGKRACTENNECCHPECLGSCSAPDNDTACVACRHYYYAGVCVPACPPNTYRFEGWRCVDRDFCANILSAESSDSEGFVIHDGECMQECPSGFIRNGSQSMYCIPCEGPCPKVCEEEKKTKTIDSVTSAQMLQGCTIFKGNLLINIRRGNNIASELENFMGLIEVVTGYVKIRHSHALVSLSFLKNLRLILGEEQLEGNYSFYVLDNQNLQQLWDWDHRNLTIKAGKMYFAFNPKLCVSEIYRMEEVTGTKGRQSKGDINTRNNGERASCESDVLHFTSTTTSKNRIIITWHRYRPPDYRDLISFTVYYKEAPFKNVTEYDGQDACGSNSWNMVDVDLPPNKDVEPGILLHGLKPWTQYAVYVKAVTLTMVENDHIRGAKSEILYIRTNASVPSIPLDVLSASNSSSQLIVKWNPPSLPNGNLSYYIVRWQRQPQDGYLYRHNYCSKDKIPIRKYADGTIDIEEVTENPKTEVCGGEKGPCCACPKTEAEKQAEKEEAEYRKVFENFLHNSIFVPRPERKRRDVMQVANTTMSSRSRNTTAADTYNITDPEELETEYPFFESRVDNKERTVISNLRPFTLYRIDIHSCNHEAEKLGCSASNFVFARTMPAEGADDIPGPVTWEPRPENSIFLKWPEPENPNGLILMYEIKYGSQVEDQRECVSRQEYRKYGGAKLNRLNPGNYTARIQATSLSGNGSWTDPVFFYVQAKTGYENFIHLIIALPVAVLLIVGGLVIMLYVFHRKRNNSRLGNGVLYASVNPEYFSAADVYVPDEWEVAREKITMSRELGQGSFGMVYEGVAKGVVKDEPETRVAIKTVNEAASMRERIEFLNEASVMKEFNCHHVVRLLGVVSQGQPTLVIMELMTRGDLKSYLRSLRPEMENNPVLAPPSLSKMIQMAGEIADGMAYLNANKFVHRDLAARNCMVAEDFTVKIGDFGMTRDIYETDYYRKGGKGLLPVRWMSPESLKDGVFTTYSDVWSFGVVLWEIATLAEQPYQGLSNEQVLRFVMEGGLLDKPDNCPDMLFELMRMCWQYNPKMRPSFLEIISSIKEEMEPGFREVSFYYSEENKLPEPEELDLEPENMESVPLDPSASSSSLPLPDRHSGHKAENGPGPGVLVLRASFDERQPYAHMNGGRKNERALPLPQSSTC
T2 sequence (P11362 458-765 C488A/C584S): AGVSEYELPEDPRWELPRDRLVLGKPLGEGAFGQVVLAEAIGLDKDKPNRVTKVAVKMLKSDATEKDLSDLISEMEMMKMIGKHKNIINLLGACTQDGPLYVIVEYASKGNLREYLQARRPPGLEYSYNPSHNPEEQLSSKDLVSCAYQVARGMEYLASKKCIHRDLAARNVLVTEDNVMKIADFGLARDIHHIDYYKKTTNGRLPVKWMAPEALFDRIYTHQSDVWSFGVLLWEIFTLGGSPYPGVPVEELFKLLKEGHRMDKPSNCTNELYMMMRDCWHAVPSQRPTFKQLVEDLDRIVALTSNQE
T1 sequence (P11362 22-822): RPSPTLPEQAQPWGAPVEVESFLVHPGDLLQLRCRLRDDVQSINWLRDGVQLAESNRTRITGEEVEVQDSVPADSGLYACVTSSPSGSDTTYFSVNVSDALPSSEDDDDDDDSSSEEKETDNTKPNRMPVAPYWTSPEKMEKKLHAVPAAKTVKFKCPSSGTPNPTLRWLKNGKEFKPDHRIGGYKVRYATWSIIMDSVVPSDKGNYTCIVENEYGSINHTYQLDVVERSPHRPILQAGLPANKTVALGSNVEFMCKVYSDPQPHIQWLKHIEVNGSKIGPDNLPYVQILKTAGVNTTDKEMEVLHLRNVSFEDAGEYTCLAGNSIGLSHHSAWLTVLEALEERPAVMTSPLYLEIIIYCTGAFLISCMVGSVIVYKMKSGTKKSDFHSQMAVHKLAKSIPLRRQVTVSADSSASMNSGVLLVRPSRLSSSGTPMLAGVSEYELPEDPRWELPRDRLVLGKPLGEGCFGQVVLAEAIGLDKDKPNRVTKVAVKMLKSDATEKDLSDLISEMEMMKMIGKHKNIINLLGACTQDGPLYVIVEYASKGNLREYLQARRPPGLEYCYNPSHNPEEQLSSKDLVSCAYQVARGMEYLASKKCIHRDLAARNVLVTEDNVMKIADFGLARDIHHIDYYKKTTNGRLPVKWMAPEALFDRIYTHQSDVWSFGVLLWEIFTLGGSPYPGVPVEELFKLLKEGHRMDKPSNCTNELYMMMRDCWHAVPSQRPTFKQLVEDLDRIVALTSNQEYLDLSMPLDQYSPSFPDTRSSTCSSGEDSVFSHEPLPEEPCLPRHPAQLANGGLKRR
Chain of FGFR1 kinase (P11362 22-822): as above
Text for Erk phosphorylation: These and other assays were used to evaluate the ability of a test compound to inhibit growth factor stimulated cellular signalling in mammalian cell lines. This was achieved by measuring the amount of receptor tyrosine kinase regulated Erk phosphorylation within a cell following compound treatment.
NIH 3T3 (ECACC, 93061524) cells were routinely passaged in DMEM (Gibco BRL, 41966) plus 10% foetal calf serum (FCS), 1% L-glutamine (Gibco BRL, 25030) to a confluence not greater than 80%. To undertake the assay, NIH 3T3's were seeded at 1×10^4 cells/well in DMEM plus 10% foetal calf serum, 1% L-glutamine in 96 well plates (Costar, 3904) and incubated at 37° C. (+5% CO2) in a humidified incubator. Once the cells had fully adhered (typically following 4-5 hours incubation) the media was removed from each well and the cells gently washed with 100μl warm serum free media. 90μl of serum free DMEM plus 1% L-glutamine was then added to each well and the plates were returned to a humidified 37° C. (+5% CO2) incubator. The following day, the plates were dosed with 10[l compound (diluted from 10 mM stock in DMSO using serum free DMEM) and the plates were returned to a humidified 37° C. (+5% CO2) incubator for one hour. NIH 3T3 cells were then stimulated with a final concentration of 3 ng/ml bFGF (Sigma, F029 1) for 20 minutes at 37° C. Following stimulation the cells were fixed by adding formaldehyde (4% v/v final concentration) and incubating at room temperature for 20 minutes. The fixative solution was then removed and the wells were washed twice with 100μl phosphate buffered saline (PBS/A) before permeabilising the cells by the addition of 50 μl/well 0.1% triton/PBS/A for 10 minutes at room temperature. The permeabilisation solution was then removed and the cells washed twice more with 100 μl/well PBS/A before the addition of 50 μl/well anti-phospho p44/42 (Cell Signalling Technology, 9106), diluted 1/500 with PBS/A plus 10% FCS. The anti-phospho p44/42 antibody recognises Erk phosphorylated at threonine 202 and tyrosine 204. […] Finally, the plates were washed three times with 100 μl/well PBS/A, leaving the final wash in the wells before sealing the plates. The plates were read at 350 nm and 488 nm using an Arrayscan (Cellomics).

`CCOCCCc1cc(Nc2ccnc(NCc3cc(C(N)=O)no3)n2)[nH]n1` [Example 22, 5-[[[4-[[5-(3-ethoxypropyl)-2H-pyrazol-3-yl]amino]pyrimidin-2-yl]amino]methyl]-1,2-oxazole-3-carboxamide]: the figures for the IC50 on FGFR1 IIIc [1] (setting [3]) and on FGFR kinase domain (setting [4]) were < 30000 nM and 100 to 1000 nM, respectively.

As to `COc1ccc(CCc2cc(Nc3ccnc(NCc4cc(C(N)=O)no4)n3)[nH]n2)cc1` [Example 26, 5-[[[4-[[5-[2-(4-methoxyphenyl)ethyl]-2H-pyrazol-3-yl]amino]pyrimidin-2-yl]amino]methyl]-1,2-oxazole-3-carboxamide], the IC50 on FGFR1 IIIc [1] (setting [3]) was < 10000 nM; at FGFR kinase domain (setting [4]), 100 to 1000 nM; on FGFR1 kinase (setting [5]) it was < 1000 nM.

For `c1coc(CCc2cc(Nc3ccnc(NCc4cc(C5CC5)no4)n3)n[nH]2)c1` [Example 111, N-[(3-cyclopropyl1,2-oxazol-5-yl)methyl]-N′-[5-[2-(2-furyl)ethyl]-2H-pyrazol-3-yl]pyrimidine-2,4-diamine], the IC50 was 1000 to 10000 nM at human IGF1R; < 1000 nM at FGFR1 IIIc [2] (setting [6]); < 200 nM at FGFR1 IIIc [1] (setting [3]); < 200 nM at FGFR1 kinase (setting [5]); < 200 nM in the experiment on Erk phosphorylation.

In the case of `COc1ccc(CCc2cc(Nc3ccnc(NCc4cc(C5CC5)no4)n3)n[nH]2)cc1` [Example 25, N-[(3-cyclopropyl-1,2-oxazol-5-yl)methyl]-N′-[5-[2-(4-methoxyphenyl)ethyl]-2H-pyrazol-3-yl]pyrimidine-2,4-diamine], the IC50 on FGFR1 IIIc [1] (setting [3]) was < 200 nM; on FGFR kinase domain (setting [4]) it was 100 to 1000 nM; on FGFR1 kinase (setting [5]) it was < 1000 nM.

Regarding `Cc1cc(Nc2cc(OC(C)C)[nH]n2)nc(NCc2cc(C3CC3)no2)n1` [Example 69, N-[(3-cyclopropyl-1,2-oxazol-5-yl)methyl]-6-methyl-N′-(5-propan-2-yloxy-2H-pyrazol-3-yl)pyrimidine-2,4-diamine], the figures for the IC50 at FGFR1 IIIc [1] (setting [3]), at FGFR kinase domain (setting [4]) and at FGFR1 kinase (setting [5]) were < 200 nM, < 100 nM and < 200 nM, respectively.

As to `CNC(=O)c1cccc(COc2cc(Nc3ccnc(NCc4cc(C)no4)n3)n[nH]2)c1` [Example 91, N-methyl-3-[[5-[[2-[(3-methyl1,2-oxazol-5-yl)methylamino]pyrimidin-4-yl]amino]-1H-pyrazol-3-yl]oxymethyl]benzamide], the IC50 at human IGF1R was > 10000 nM; on FGFR1 IIIc [2] (setting [6]), < 1000 nM; on FGFR1 IIIc [1] (setting [3]), < 1000 nM; at FGFR1 kinase (setting [5]), < 200 nM; with Erk phosphorylation, < 200 nM.

As to `COc1cc(Nc2cc(OC(C)C)[nH]n2)nc(NCc2cc(C3CC3)no2)n1` [Example 71, N-[(3-cyclopropyl-1,2-oxazol-5-yl)methyl]-6-methoxy-N′-(5-propan-2-yloxy-2H-pyrazol-3-yl)pyrimidine-2,4-diamine], the IC50 at FGFR1 IIIc [1] (setting [3]) is < 200 nM; at FGFR kinase domain (setting [4]), < 100 nM; at FGFR1 kinase (setting [5]), < 200 nM.

For the compound `NC(=O)c1cc(CNc2nccc(Nc3cc(C4CC4)n[nH]3)n2)on1` [Example 11, 5-[[[4-[(5-cyclopropyl-2H-pyrazol-3-yl)amino]pyrimidin-2-yl]amino]methyl]-1,2-oxazole-3-carboxamide], the IC50 on human IGF1R is 1000 to 10000 nM; on FGFR1 IIIc [1] (setting [3]), < 1000 nM; on FGFR kinase domain (setting [4]), < 100 nM.

As for `CCCc1cc(Nc2ccnc(NCc3cc(C4CC4)no3)n2)n[nH]1` [Example 7, N-[(3-cyclopropyl-1,2-oxazol-5-yl)methyl]-N′-(5-propyl-2H-pyrazol-3-yl)pyrimidine-2,4-diamine], the IC50 was < 200 nM at FGFR1 IIIc [1] (setting [3]) and < 100 nM on FGFR kinase domain (setting [4]).

On to `Cc1cc(CNc2nccc(Nc3cc(OCc4cccc(F)c4)[nH]n3)n2)on1` [Example 94, N′-[5-[(3-fluorophenyl)methoxy]-1H-pyrazol-3-yl]-N-[(3-methyl1,2-oxazol-5-yl)methyl]pyrimidine-2,4-diamine hydrochloride], for which the IC50 is > 10000 nM on human IGF1R; < 1000 nM on FGFR1 IIIc [2] (setting [6]); < 200 nM at FGFR1 IIIc [1] (setting [3]); < 1000 nM at FGFR1 kinase (setting [5]); < 200 nM in the experiment with Erk phosphorylation.

Consider `Cc1cc(CNc2nccc(Nc3cc(OCc4cccc(Cl)c4)[nH]n3)n2)on1` [Example 93, N′-[5-[(3-chlorophenyl)methoxy]-1H-pyrazol-3-yl]-N-[(3-methyl1,2-oxazol-5-yl)methyl]pyrimidine-2,4-diamine hydrochloride], for which the IC50 was > 10000 nM on human IGF1R; < 1000 nM at FGFR1 IIIc [2] (setting [6]); < 1000 nM on FGFR1 IIIc [1] (setting [3]); < 1000 nM on FGFR1 kinase (setting [5]); < 200 nM in the experiment with Erk phosphorylation.

For the compound `CCCc1cc(Nc2ccnc(NCc3cc(C(N)=O)no3)n2)n[nH]1` [Example 8, 5-[[[4-[(5-propyl-1H-pyrazol-3-yl)amino]pyrimidin-2-yl]amino]methyl]-1,2-oxazole-3-carboxamide], the IC50 was < 1000 nM at FGFR1 IIIc [1] (setting [3]) and < 100 nM on FGFR kinase domain (setting [4]).

On to `Cc1cc(CN(C)c2nccc(Nc3cc(C)[nH]n3)n2)on1` [Example 2, N-methyl-N-[(3-methylisoxazol-5-yl)methyl]-N′-(5-methyl-2H-pyrazol-3-yl)pyrimidine-2,4-diamine], for which the IC50 was < 1000 nM on FGFR1 IIIc [1] (setting [3]) and 100 to 1000 nM on FGFR kinase domain (setting [4]).

For the compound `Cc1cc(Nc2ccnc(NCc3cc(C(N)=O)no3)n2)[nH]n1` [Example 4, 5-[[[4-[(5-methyl-2H-pyrazol-3-yl)amino]pyrimidin-2-yl]amino]methyl]isoxazole-3-carboxamide], the IC50 at human IGF1R was > 10000 nM; against FGFR1 IIIc [1], < 10000 nM; at FGFR kinase domain (Activity class), 100 to 1000 nM.

As to `COc1cc(CCc2cc(Nc3ccnc(NCc4cc(C)no4)n3)n[nH]2)cc(OC)c1` [Example 42, N′-[5-[2-(3,5-dimethoxyphenyl)ethyl]-2H-pyrazol-3-yl]-N-[(3-methyl1,2-oxazol-5-yl)methyl]pyrimidine-2,4-diamine], the IC50 on human IGF1R is 1000 to 10000 nM; at FGFR1 IIIc [2], < 200 nM; against FGFR1 IIIc [1], < 200 nM; against FGFR1 kinase it was < 200 nM; in the experiment with Erk phosphorylation, < 200 nM.

For the compound `CCOCCCc1cc(Nc2ccnc(NCc3cc(C)no3)n2)n[nH]1` [Example 20, N′-[5-(3-ethoxypropyl)-2H-pyrazol-3-yl]-N-[(3-methyl-1,2-oxazol-5-yl)methyl]pyrimidine-2,4-diamine], the IC50 on FGFR1 IIIc [1] (setting [3]) is < 10000 nM; on FGFR kinase domain (setting [4]), 100 to 1000 nM.

On to `CCOCCCc1cc(Nc2ccnc(NCc3cc(C4CC4)no3)n2)[nH]n1` [Example 21, N-[(3-cyclopropyl-1,2-oxazol-5-yl)methyl]-N′-[5-(3-ethoxypropyl)-2H-pyrazol-3-yl]pyrimidine-2,4-diamine], for which the IC50 is < 1000 nM on FGFR1 IIIc [1] (setting [3]) and < 100 nM on FGFR kinase domain (setting [4]).

Consider `Cc1cc(CNc2nccc(Nc3cc(CCc4cccc(O)c4)[nH]n3)n2)on1` [Example 41, 3-[2-[5-[[2-[(3-methyl1,2-oxazol-5-yl)methylamino]pyrimidin-4-yl]amino]-1H-pyrazol-3-yl]ethyl]phenol], for which the IC50 was 1000 to 10000 nM at human IGF1R; < 1000 nM on FGFR1 IIIc [2] (setting [6]); < 1000 nM on FGFR1 IIIc [1] (setting [3]); < 200 nM on FGFR1 kinase (setting [5]); < 200 nM with Erk phosphorylation.

Consider `Cc1cccc(CCc2cc(Nc3ccnc(NCc4cc(C)no4)n3)n[nH]2)c1` [Example 52, N-[(3-methyl1,2-oxazol-5-yl)methyl]-N′-[5-[2-(3-methylphenyl)ethyl]-1H-pyrazol-3-yl]pyrimidine-2,4-diamine hydrochloride], for which the IC50 at human IGF1R is > 10000 nM; on FGFR1 IIIc [2] (setting [6]), < 1000 nM; at FGFR1 IIIc [1] (setting [3]), < 1000 nM; on FGFR1 kinase (setting [5]), < 200 nM; in the experiment with Erk phosphorylation, < 200 nM.
